# Results taken from patent US8173673B2, “Biofilm-inhibiting effect and anti-infective activity of N,C-linked aryl isoquinolines and the use thereof” (Julius-Maximilians-Universitaet Wuerzburg, priority 2006, dated 2012).
# Structures can show the parent of a compound that is named as a salt.
# Key:
# Candida albicans 5314 = test: MIC, micro-bouillon-dilution method; assay type: cell-based; details: Candida albicans 5314, 18 hours at 37° C.
# From the text: (§1) Examination of the Inhibitory Effect Through Determining of the Minimal Inhibitory Concentration (MIC) in the Micro-Bouillon-Dilution Methods
# (§2) In this method, a series of dilutions with decreasing concentrations of drug is produced in 96-well-microtiter plates from a stock solution of the compound. The drug-containing microtiter plate-wells are inoculated with a defined amount of the pathogen to be tested, and cultivated. The concentration of the compound in the well, where no more turbidity of the medium due to a growth of the pathogens could be optically detected is given as the MIC.
# (§3) The test strains were inoculated in Luria-Bertani-medium, and grown over night in a shaking incubator at 37° C. until stationary growth phase. On the following day, the culture was diluted 1:100 with fresh Müller-Hinton-bouillon (MH-Medium) containing 5% NaCl (w/v), and until logarithmic growth phase incubated again at 37° C. inkubiert. The optical density of the bacterial suspension was photometrically measured at 550 nm, and the suspension adjusted at 2×10^5 colony forming units/ml (CFU/ml). In the meantime, a geometric series of dilutions of the test compounds was produced in MH-medium. 100 μl of each dilution were pipetted into the corresponding wells of a 96-well-polystyrene-flat bottom-microtiter plate. The plates were inoculated with 100 μl of the pre-prepared inoculum, and cultured in the incubator for 18 hours at 37° C. On the following day, the optical density of the bacterial cultures in the wells was determined with an ELISA-reader at a wavelength of 550 nm, compared to the blank value (=non-inoculated MH-medium). The concentrations of the compound in the last wells, wherein no more growth of the pathogens could be detected, is given as the MIC. A low MIC indicates a high inhibitory activity of a compound, whereas a high concentration indicates a low activity.
# (§4) The MIC of, for example, A was tested for the following germs and strains: • Staphylococcus aureus 325: Biofilm-positive clinical isolate from blood culture, wild type • Staphylococcus aureus NCTC 8325: Biofilm-negative reference strain, genome published • Staphylococcus epidermidis RP62A: Biofilm-positive, multi resistant reference strain • Escherichia coli 536: urinary tract isolate, reference strain • Pseudomonas aeruginosa: environmental isolate • Candida albicans 5314: clinical isolate
# Escherichia coli 536 = test: MIC, micro-bouillon-dilution method; assay type: cell-based; details: Escherichia coli 536, 18 hours at 37° C.
# From the text: as §1, §2, §3, §4
# Pseudomonas aeruginosa = test: MIC, micro-bouillon-dilution method; assay type: cell-based
# From the text: as §1, §2, §3, §4
# [1] = test system: Staphylococcus aureus 325; test: MIC, micro-bouillon-dilution method; assay type: cell-based; details: Staphylococcus aureus 325, 18 hours at 37° C.
# From the text: as §1, §2, §3, §4
# [2] = test system: Staphylococcus aureus NCTC 8325; test: MIC, micro-bouillon-dilution method; assay type: cell-based; details: Staphylococcus aureus NCTC 8325, 18 hours at 37° C.
# From the text: as §1, §2, §3, §4
# [3] = test system: Staphylococcus epidermidis RP62A; test: MIC, micro-bouillon-dilution method; assay type: cell-based; details: 18 hours at 37° C.
# From the text: as §1, §2, §3, §4
# [4] = test system: 293 kidney epithelial cells; test: Cytotoxicity by the Alamar-Blue assay; assay type: cell-based
# Protocol: Determination of the Cytotoxicity by the Alamar-Blue®-Assay with the Example of Substance A
# The cytotoxicity of A was determined by means of an Alamar-Blue®-assay. First, a geometric series of dilutions of A in cellular medium (293 kidney epithelial cells; without phenol red) with 1% DMSO was produced, and in a 96-well-polystyrol-flat bottom-microtiter plate vorgelegt. The cells were trypsinized, and washed once. For the test, a cellular suspension of 10^5 cells/ml was prepared, and 20 μl thereof were pipetted into the wells. The final volume was 200 μl. After 24 h incubation at 37° C. and 5% CO2, 20 μl Alamar Blue (Trinova Biochem, Gieβen, Germany) was added into each well, and the microtiter plate was incubated further. The wells that contained the medium and substance, as well as those that only contained cellular suspension (without substance), served as negative or positive control, respectively. The optical density was measured after 24 h and 48 h with an ELISA-reader at the wavelengths 550 nm and 630 nm. The IC50 value for A was calculated following linear interpolation (W. Huber, J. C. Koella Acta Tropica 1993, 55, 257-261).
# S. epidermidis RP62A = test: Biofilm test on polystyrene surfaces (crystal violet); assay type: cell-based, Staphylococcus epidermidis; details: drug concentration of 0.63 μM
# Protocol: Determination of the Formation of Biofilms of Staphylococci on Polystyrene-Surfaces (Biofilm Test)
# For determining the effect of a test compound on the formation of biofilms of staphylococci, the biofilm-reference strain S. epidermidis RP62A is inoculated in trypticase-soy-broth (TSB) with a common 0.25% (w/v) glucose concentration (standard-TSB), and grown over night at 37° C. in a shaking incubator until the stationary growth phase. On the next day, the cultures are diluted 1:100 with fresh TSB, and 100 μl of this germ suspension are pipetted into the wells of a 96-well-polystyrol-tissue culture plate with flat bottom (Greiner, Nürtingen, Germany). In the meantime, also a geometric series of dilutions of the test substance is produced in TSB, and also 100 μl of each of these dilutions are added to the den germ suspensions. The plates were incubated at 37° C. in an incubator for 18 hours at 37° C. On the next day, first the growth of the cultures is checked through determining of the optical density at 550 nm by means of an ELISA-reader (see also at MIC-determination), and documented. Then, the cultures are carefully poured out of the wells, and the plates were washed three times with phosphate-buffered saline solution (PBS), in order to remove non-adherent bacteria. […] After drying, the density of the adherent biofilm is determined with an ELISA-reader at a wavelength of 490 nm.
smiles,measurement,setting,value
"COc1cc(OC)c2c(C)[n+](-c3ccc(-c4ccc(-[n+]5c(C)cc6cc(OC)cc(OC)c6c5C)cc4)cc3)c(C)cc2c1 [A, N,N′-(1,1′-benzidine)-di-(6,8-dimethoxy-1,3-dimethylisoquinolinium)-salt]",Minimal inhibitory concentrations,Candida albicans 5314,1.25 µM
same,Minimal inhibitory concentrations,Escherichia coli 536,20.00 µM
same,Minimal inhibitory concentrations,"Pseudomonas aeruginosa; Pseudomonas aeruginosa, 18 hours at 37° C.",>160 µM
same,growth-inhibiting effect,"Pseudomonas aeruginosa; pseudomonades, result in words",fully ineffective
same,Minimal inhibitory concentrations,[1],0.63 µM
same,Minimal inhibitory concentrations,[2],5.00 µM
same,Minimal inhibitory concentrations,[3],0.63 µM
same,IC50,[4],42.4 µM
same,reduction of the formation of biofilms compared to a control without the substance,S. epidermidis RP62A,about 90%
